Measured values published in publication PMC12686497, “Exploring neurokinin-1 receptor antagonism for depression with structurally differentiated inhibitors” (Experimental & Molecular Medicine, 2025).

Key:
[1] = molecular target: T1, NK1R (hTACR1-HEK293 cells) (Homo sapiens, UniProt P25103); test: FLIPR calcium 6 assay, SP-induced intracellular calcium mobilization; type: cell-based; settings: 1 nM SP
T1 construct: expressed in transfected cells; host or cells: HEK293
Method: The following day, the cells were loaded with the FLIPR calcium 6 dye mixed at 1:1 to medium with 2.5 mM probenecid. The assay plate was wrapped with aluminum foil and incubated for 2 h at 37 °C in a humidified CO2 incubator. Each concentration of chemicals was dissolved in 1× Hank’s Balanced Salt Solution (plus 20 mM HEPES buffer, pH 7.4) and added to the well. The plate was incubated for 30 min at 37 °C before measuring. The final concentration of dimethyl sulfoxide was 0.5% in each well. Then, 1 nM SP-induced intracellular calcium mobilization was examined by monitoring the fluorescence intensity (excitation at 485 nm, emission at 525 nm, cutoff filter set at 515 nm) using a Flex Station 3 multimode microplate reader. Changes in fluorescence signal after SP addition were normalized to its starting signal and denoted as F/F0.

[2] = test system: LPS-induced depressive-like behavior; test: Tail suspension test (TST) in LPS model; type: in vivo, C57BL/6 mice; settings: 10 mg/kg i.p., vs LPS-treated group
Method: (§1) The ligands were dissolved at a dose of 10 mg/kg in the vehicle (10% dimethyl sulfoxide and 10% Kolliphor in 0.9% saline) and intraperitoneally injected into each animal in experimental groups.
(§2) To generate the lipopolysaccharide (LPS) model, 0.25 mg/kg of LPS from E. coli O26:B6 (Sigma, L3755) was dissolved in 0.9% saline and injected intraperitoneally. The control group was treated with 0.9% saline instead of LPS injection. The mice received injections of either vehicle, compound #1, compound #15 or Aprepitant (Tocris Bioscience) on day 1, 1 h before LPS injection and on day 2.
On day 4 after LPS administration, the tail suspension test (TST) was conducted. A four-chamber apparatus divided by nontransparent acrylic partitions was used, and the mice were suspended in each chamber by the tail. A video was recorded for 6 min, and the last 4 min were manually scored for immobility time.

[3] = test system: IL-1β, TNF-α and IL-6 mRNA; test: qRT-PCR of proinflammatory cytokine mRNA in frontal cortex and hippocampus, LPS model; type: in vivo, C57BL/6 mice; settings: 10 mg/kg i.p., 4 h after LPS, vs LPS-treated group
Method: as §1, §2
Four hours after LPS injection, the frontal lobe and hippocampus were isolated from the animal brain and placed in TRIzol solution (Ambion). Total RNA sample (2 μg) was reverse-transcribed into cDNA using Moloney Murine Leukemia Virus reverse transcriptase (M-MLV RT; Promega) and oligo (dT) primer (Novagen). Quantitative reverse transcription polymerase chain reaction (qRT–PCR), which quantifies gene expression levels, was performed using 0.5 μg of the reverse-transcription generated cDNA and specific primer sets (Supplementary Table 3). PCR amplification with iQ SYBR Green Supermix was performed in triplicate using the CFX96 Touch-Time System (Bio-Rad). The final products of qRT–PCR were electrophoresed on 2% agarose gels and visualized with SafeView Nucleic Acid Stain (G108, Applied Biological Materials). Cycle threshold (Ct) values at which the fluorescent signal exceeded the background were determined by qRT–PCR, and expression values for each gene were normalized to expression values of GAPDH. Relative quantification to calculate fold change was performed using the comparative Ct method (ΔΔCt).

[4] = test system: SI-induced despair-like behavior; test: Forced swim test (FST) in social isolation (SI) stress model; type: in vivo, C57BL/6 mice; settings: 10 mg/kg i.p. day 6 to 13
Method: as §1
To generate the social isolation (SI) stress model, the animals were single-caged for 14 days. From day 6 to 13, mice received injections of either vehicle or compound #15.
(§3) On day 21 in the RS model and day 12 in the SI model, the forced swim test (FST) was performed. During each trial, mice were placed in a test cylinder (diameter 15 cm, height 25 cm) filled with water regulated at 25 ± 1 °C, and a video was recorded for 6 min. Immobility time was manually scored during the last 4 min of each trial.

[5] = test system: RS-induced despair-like behavior; test: Forced swim test (FST) in restraint stress (RS) model; type: in vivo, C57BL/6 mice; settings: 10 mg/kg i.p. day 11 to 20
Method: as §1
To induce depressive-like behaviors in mice, restraint stress (RS) was applied using 50-ml conical tubes with many holes for 20 days, 2 h per day. From day 11 to 20, mice received injections of either vehicle or compound #15.
as §3

T1 sequence (P25103 whole entry): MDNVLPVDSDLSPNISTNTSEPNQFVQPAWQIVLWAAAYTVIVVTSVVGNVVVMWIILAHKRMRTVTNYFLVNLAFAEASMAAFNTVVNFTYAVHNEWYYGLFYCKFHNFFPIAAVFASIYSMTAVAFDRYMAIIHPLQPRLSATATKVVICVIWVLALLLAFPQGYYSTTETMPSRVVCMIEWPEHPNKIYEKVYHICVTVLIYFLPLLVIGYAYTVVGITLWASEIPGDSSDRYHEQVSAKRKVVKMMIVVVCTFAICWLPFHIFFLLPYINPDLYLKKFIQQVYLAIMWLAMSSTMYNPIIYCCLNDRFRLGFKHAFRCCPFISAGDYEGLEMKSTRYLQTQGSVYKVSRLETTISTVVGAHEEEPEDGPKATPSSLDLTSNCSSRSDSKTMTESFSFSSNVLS

Row | Compound | immobility time in TST [2] | IL-6 mRNA level ([3]; frontal cortex) | TNF-α mRNA level ([3]; frontal cortex) | IL-1β mRNA level ([3]; hippocampus) | IL-6 mRNA level ([3]; hippocampus) | TNF-α mRNA level ([3]; hippocampus) | NK1R antagonistic / inhibitory activity (in words) [1] | further results
1 | COc1ccc(-c2[nH]c3ccc(F)cc3c2CCC(=O)NC(C)c2ccc(-n3cncn3)cc2)cc1 (stereo not shown) [#1] | significant reduction in immobility time | significantly reduced | significantly reduced | significantly reduced | significantly reduced | significantly reduced |  | IC50 (in words) [1]: single-digit micromolar
2 | COc1ccc(C(C)=O)cc1CC(=O)N(C)Cc1cc(Br)ccc1OC [#2] |  |  |  |  |  |  | weaker inhibitory effects | 
3 | Cc1cc(F)ccc1C1CCN(C(=O)NC2CCOC3(CCOC3)C2)CC1 (stereo not shown) [#3] |  |  |  |  |  |  | weaker inhibitory effects | 
4 | Cc1ccc2[nH]c(-c3ccc(Br)cc3)c(CCC(=O)NC(c3ccc(C(C)C)cc3)C(C)C)c2c1 (stereo not shown) [#15] | significantly reduced immobility time |  |  |  |  |  |  | IC50 [1]: 79.5 nM; immobility time in FST [4]: notable reduction in immobility time; immobility time in FST [5]: notable reduction in immobility time
5 | C[C@@H](O[C@H]1OCCN(Cc2n[nH]c(=O)[nH]2)[C@H]1c1ccc(F)cc1)c1cc(C(F)(F)F)cc(C(F)(F)F)c1 [Aprepitant, reference compound] | significant reduction in immobility time | significantly reduced | significantly reduced | significantly reduced | significantly reduced | significantly reduced |  | 
